Data reported in patent US5039806A, “Novel pharmacologically active compound pyridyl methylsulfinyl benzimidazole” (AB Hassle, priority 1983, dated 1991).

system: gastric acid secretion in conscious dog; assay: Inhibiting effect in vivo on gastric acid secretion in conscious dog (gastric fistula, histamine-stimulated); conditions: intraduodenal (I.D.) dose 8 μmol/kg, free base in 0.5% Methocel
Experimental: II. Inhibiting effect in vivo on gastric acid secretion in conscious dog
Chronic gastric fistula dogs were used. These dogs have been surgically provided with a gastric cannula in the stomach and a duodenal fistula used for direct intraduodenal administration of test compounds. Following a 4 weeks' recovery period after surgery, tests were performed once a week on each dog. Food and water were withdrawn 18 hours before each test.
Gastric acid secretion was induced by continuous infusion of histamine at individual doses (100-300 nmol/kg,h), resulting in submaximal secretion of gastric acid. At least 2 hours after onset of stimulation, when the gastric acid secretion had reached a steady level, the test compounds in the form of free base suspended in 0.5% Methocel® (90 HG, 15.000, Dow Chem. Corp.), were given intraduodenally at doses from 1 to 8 μmol/kg. The gastric juice was collected by free flow from the gastric cannula in consecutive 30 minutes samples for 3 hours. The samples were titrated to pH 7.0 with 0.1 M NaOH using a Radiometer automatic titrator and the acid output was calculated.
The percent inhibition of acid secretion was calculated by comparing in each dog the acid output in the tests to the acid output in control tests when only the vehicle was given.

Row | SMILES | % INHIB (peak inhibitory effect on acid secretion)
1 | COc1c(C)cnc(CSc2nc3cc4ccccc4cc3[nH]2)c1C [Example 84] | 85%
2 | COc1c(C)cnc(CSc2nc3cc(SC)ccc3[nH]2)c1C [Example 109] | 60%

system: isolated rabbit gastric glands; assay: Inhibiting effect in vitro on acid secretion in isolated rabbit gastric glands (14C-aminopyrine accumulation); assay type: cell-based; conditions: Oryctolagus cuniculus, 1 h, logarithm of concentration (in M) giving 50% inhibition of aminopyrine accumulation; 5×10^-5 M histamine, 60 min, free base
Experimental: I. Inhibiting effect in vitro on acid secretion in isolated rabbit gastric glands
Isolated rabbit gastric glands were prepared as described by Berglindh et al., Acta physiol. scand. 1976. 96. 150-159. This method involves vascular perfusion of the rabbit stomach via the gastric arteries, scraping and scissor mincing of the separated gastric mucosa and collagenase (0.1%, Type I, Sigma Chemicals, St. Louis, MO. USA) digestion at 37° C. for 60-90 min. The glands are then harvested and filtered through nylon cloth to remove coarse fragments. The glands are thereafter incubated at 37° C. in a medium containing NaCl 132.4 mM, KCl 5.4 mM, […], NaH2 PO4 1.0 mM, MgSO4 1.2 mM, CaCl2 1.0 mM, glucose 10 mM, and 1 mg/ml rabbit albumine, pH 7.4.
The acid secretion in the isolated gland preparation was recorded by measuring the uptake of ^14 C-labelled aminopyrine into the glands as described by Berglindh et al., Acta physiol. scand. 1976. 97. 401-414. Accumulation of aminopyrine in the glands indicates gastric acid secretion within the glands. The standard medium contained 10^-6 M ^14 C-aminopyrine (Amersham, Great Britain). After the incubation period, the glands were centrifuged, the supernatant was removed and the glands dried, weighed and dissolved in Soluene -350 (Packard, IU. USA). Samples of the supernatant and glands were separately counted in a scintillation counter. The accumulation of ^14 C-labelled aminopyrine in the glands was calculated as detailed by Berglindh et al., Acta physiol. scand. 1976. 97. 403.
Glands were incubated for 60 min. in the presence of 5×10^-5 M histamine and the test compound to be studied. The free base of the test compound was dissolved in methanol. The final concentration of methanol was 1% in the incubation medium, having no influence on the aminopyrine accumulation ratio.

Row | SMILES | IC50
3 | C=CCOc1c(C)cnc(C[S+]([O-])c2nc3c(C)cccc3[nH]2)c1C (centres unmarked) [Example 28] | 1260 nM
4 | C=CCOc1c(C)cnc(C[S+]([O-])c2nc3cc(C)ccc3[nH]2)c1C (centres unmarked) [Example 30] | 1260 nM
5 | C=CCOc1c(C)cnc(C[S+]([O-])c2nc3cc(OC)ccc3[nH]2)c1C (centres unmarked) [Example 32] | 2510 nM
6 | C#CCOc1c(C)cnc(C[S+]([O-])c2nc3cc(OC)ccc3[nH]2)c1C (centres unmarked) [Example 34] | 10000 nM
7 | CCc1cnc(C[S+]([O-])c2nc3cc(OC)ccc3[nH]2)cc1OC (centres unmarked) [Example 35] | 2510 nM
8 | COc1ccc2[nH]c([S+]([O-])Cc3cc4c(cn3)CCCC4)nc2c1 (centres unmarked) [Example 37] | 10000 nM
9 | C=CCOc1c(C)cnc(C[S+]([O-])c2nc3c(C)cc(C)cc3[nH]2)c1C (centres unmarked) [Example 41] | 1260 nM
10 | COc1c(C)cnc(C[S+]([O-])c2nc3cc(OCC#N)ccc3[nH]2)c1C (centres unmarked) [Example 43] | 39800 nM
11 | C=CCOc1c(C)cnc(C[S+]([O-])c2nc3cc(C(=O)OC)c(C)cc3[nH]2)c1C (centres unmarked) [Example 55] | 5010 nM
12 | COCCOc1c(C)cc2[nH]c([S+]([O-])Cc3ncc(C)c(OC)c3C)nc2c1C (centres unmarked) [Example 58] | 1260 nM
13 | COCCOc1c(C)cc2[nH]c([S+]([O-])Cc3cc(C)c(C)cn3)nc2c1C (centres unmarked) [Example 60] | 3980 nM
14 | CC(=O)c1c(C)cc2[nH]c([S+]([O-])Cc3ncc(C)cc3C)nc2c1C (centres unmarked) [Example 64] | 1580 nM
15 | CCc1c(C)cc2[nH]c([S+]([O-])Cc3nccc(OC)c3C)nc2c1C (centres unmarked) [Example 70] | 1260 nM
16 | CCc1cc2[nH]c([S+]([O-])Cc3ncc(C)c(OC)c3C)nc2c(CC)c1C#N (centres unmarked) [Example 72] | 10000 nM
17 | COc1c(C)cnc(C[S+]([O-])c2nc3cc(C(=O)N4CCCCC4C)ccc3[nH]2)c1C (centres unmarked) [Example 79] | 10000 nM
18 | COc1c(C)cnc(C[S+]([O-])c2nc3c(ccc4ccccc43)[nH]2)c1C (centres unmarked) [Example 83] | 5010 nM
19 | COc1c(C)cnc(C[S+]([O-])c2nc3cc(OCCCOc4ccccc4)ccc3[nH]2)c1C (centres unmarked) [Example 91] | 1580 nM
20 | COc1c(C)cnc(C[S+]([O-])c2nc3c(cc4c5c(cccc53)CC4)[nH]2)c1C (centres unmarked) [Example 98] | 2510 nM
21 | C=CCOc1c(C)cnc(C[S+]([O-])c2nc3cc(C(C)(C)C)ccc3[nH]2)c1C (centres unmarked) [Example 102] | 1260 nM
22 | COCCc1ccc2[nH]c([S+]([O-])Cc3ncc(C)c(OC)c3C)nc2c1 (centres unmarked) [Example 104] | 2000 nM
23 | C=CCOc1c(C)cnc(C[S+]([O-])c2nc3cc(CCC(C)=O)ccc3[nH]2)c1C (centres unmarked) [Example 113] | 1580 nM
24 | CCOc1c(C)cnc(C[S+]([O-])c2nc3c(C)c(C#N)c(C)cc3[nH]2)c1C (centres unmarked) [Example 153] | 6310 nM

Second part, the compound after the results:

Row | IC50 | SMILES
25 | 200 nM | COc1c(C)cc2[nH]c([S+]([O-])Cc3nccc(C)c3C)nc2c1C (centres unmarked) [Example 1, 4,6-dimethyl-5-methoxy-2-[[(3,4-dimethyl-2-pyridinyl)methyl]sulfinyl]-1H-benzimidazole]
26 | 1260 nM | CCCCCCCOc1c(C)cc2[nH]c([S+]([O-])Cc3ncc(C)c(OC)c3C)nc2c1C (centres unmarked) [Example 2, 4,6-dimethyl-5-heptyloxy-2-[[(4-methoxy-3,5-dimethyl-2-pyridinyl)methyl]sulfinyl]-1H-benzimidazole]
27 | 316 nM | COc1c(C)cnc(C[S+]([O-])c2nc3c(C)c(OC)c(C)cc3[nH]2)c1C (centres unmarked) [Example 8, 4,6-dimethyl-5-methoxy-2-[[(4-methoxy-3,5-dimethyl-2-pyridinyl)methyl]sulfinyl]-1H-benzimidazole]
28 | 794 nM | C=CCOc1c(C)cnc(C[S+]([O-])c2nc3c(C)c(C)c(C)c(C)c3[nH]2)c1C (centres unmarked) [Example 10]
29 | 316 nM | COc1c(C)cnc(C[S+]([O-])c2nc3c(C)c(C)c(C)c(C)c3[nH]2)c1C (centres unmarked) [Example 12]
30 | 794 nM | C=CCOc1c(C)cnc(C[S+]([O-])c2nc3c(C)c(C)c(C)cc3[nH]2)c1C (centres unmarked) [Example 14]
31 | 316 nM | COc1c(C)cnc(C[S+]([O-])c2nc3c(C)c(C)c(C)cc3[nH]2)c1C (centres unmarked) [Example 16]
32 | 1260 nM | C=CCOc1c(C)cnc(C[S+]([O-])c2nc3c(C)c(C)cc(C)c3[nH]2)c1C (centres unmarked) [Example 18]
33 | 1000 nM | COc1c(C)cnc(C[S+]([O-])c2nc3c(C)c(C)cc(C)c3[nH]2)c1C (centres unmarked) [Example 20]
34 | 1000 nM | C=CCOc1c(C)cnc(C[S+]([O-])c2nc3c(C)c(C)ccc3[nH]2)c1C (centres unmarked) [Example 22]
35 | 1000 nM | C=CCOc1c(C)cnc(C[S+]([O-])c2nc3cc(C)c(C)cc3[nH]2)c1C (centres unmarked) [Example 24]
36 | 1260 nM | C=CCOc1c(C)cnc(C[S+]([O-])c2nc3c(C)ccc(C)c3[nH]2)c1C (centres unmarked) [Example 26]
37 | 794 nM | COc1c(C)cnc(C[S+]([O-])c2nc3cc(C4CCCCC4)ccc3[nH]2)c1C (centres unmarked) [Example 45]
38 | 794 nM | COc1c(C)cnc(C[S+]([O-])c2nc3cc(CO)c(C)cc3[nH]2)c1C (centres unmarked) [Example 51]
39 | 631 nM | COc1c(C)cnc(C[S+]([O-])c2nc3c(C)c(C(C)=O)c(C)cc3[nH]2)c1C (centres unmarked) [Example 62]
40 | 1000 nM | CCC(=O)c1c(C)cc2[nH]c([S+]([O-])Cc3ncc(C)c(OC)c3C)nc2c1C (centres unmarked) [Example 66]
41 | 316 nM | CCc1c(C)cc2[nH]c([S+]([O-])Cc3ncc(C)c(OC)c3C)nc2c1C (centres unmarked) [Example 68]
42 | 631 nM | COc1c(C)cnc(C[S+]([O-])c2nc3c(C)c(OC)c(C)c(C)c3[nH]2)c1C (centres unmarked) [Example 74]

Row | IC50 | SMILES
43 | 1000 nM | CCc1cnc(C[S+]([O-])c2nc3cc(C)c(C)cc3[nH]2)cc1OC (centres unmarked) [Example 77]
44 | 501 nM | COc1c(C)cnc(C[S+]([O-])c2nc3c4c(ccc3[nH]2)CCCC4)c1C (centres unmarked) [Example 87]
45 | 251 nM | C=CCOc1c(C)cnc(C[S+]([O-])c2nc3cc(CC)ccc3[nH]2)c1C (centres unmarked) [Example 94]
46 | 794 nM | COc1ccc2[nH]c([S+]([O-])Cc3ncc(C)c(OCCC(C)C)c3C)nc2c1 (centres unmarked) [Example 96]
47 | 1000 nM | COc1c(C)cnc(C[S+]([O-])c2nc3cc4c(cc3[nH]2)OC2(CCCCC2)O4)c1C (centres unmarked) [Example 106]
48 | 631 nM | Cc1cnc(C[S+]([O-])c2nc3cc(C(C)C)ccc3[nH]2)c(C)c1OCC1CCCO1 (centres unmarked) [Example 111]
49 | 398 nM | COc1c(C)cnc(C[S+]([O-])c2nc3cc(Oc4ccccc4)ccc3[nH]2)c1C (centres unmarked) [Example 118]
50 | 501 nM | COc1c(C)cnc(C[S+]([O-])c2nc3cc(OCCc4ccccc4)ccc3[nH]2)c1C (centres unmarked) [Example 120]
51 | 100 nM | COc1c(C)cnc(C[S+]([O-])c2nc3cc(-c4ccccc4)ccc3[nH]2)c1C (centres unmarked) [Example 124]
52 | 1000 nM | C=CCOc1c(C)cnc(C[S+]([O-])c2nc3cc(Br)ccc3[nH]2)c1C (centres unmarked) [Example 129]
53 | 1000 nM | Cc1cnc(C[S+]([O-])c2nc3cc4c(cc3[nH]2)OCO4)c(C)c1C (centres unmarked) [Example 142]
54 | 794 nM | CCc1cnc(C[S+]([O-])c2nc3cc(C(=O)OC)c(C)cc3[nH]2)cc1OC (centres unmarked) [Example 143]
55 | 631 nM | Cc1ccnc(C[S+]([O-])c2nc3c(C)c(C)c(C)cc3[nH]2)c1C (centres unmarked) [Example 145]
56 | 398 nM | Cc1cnc(C[S+]([O-])c2nc3c(C)c(C)c(C)cc3[nH]2)cc1C (centres unmarked) [Example 147]
57 | 631 nM | Cc1cnc(C[S+]([O-])c2nc3c(C)c(C)c(C)cc3[nH]2)c(C)c1 (centres unmarked) [Example 149]
58 | 501 nM | Cc1ccnc(C[S+]([O-])c2nc3c(C)c(C)cc(C)c3[nH]2)c1C (centres unmarked) [Example 151]
59 | 501 nM | Cc1cnc(C[S+]([O-])c2nc3cc(C(F)(F)F)ccc3[nH]2)c(C)c1OCC1CCCO1 (centres unmarked) [Example 159]
